These results are taken from patent US6962921B2, “Dementia remedies containing 2-aryl-8-oxodihydropurine derivatives as the active ingredient” (Dainippon Pharmaceutical Co., Ltd., priority 2000, dated 2005).

Data set [1] has as its system scopolamine-induced object memory impairment. The data set is described as follows: Ameliorating effect on object memory disorder induced by scopolamine (object recognition test). The format is in vivo. The following applies: Std-ddY male mice, oral; for MED (minimum effective dose), significant difference in the discrimination index, scopolamine-induced object memory impairment: 30 minutes before scopolamine 0.4 mg/kg s.c., 5% significance level. The procedure:
Experiment 2: Ameliorating Effect on Object Memory Disorder Induced by Scopolamine. The object recognition test is a test method using the property which animals like to search a novel object. This method is often used in order to study the memorization and retention of episodic memory. This experiment was carried out according to the partially modified method of Bartolini, L. et al. [Pharmacol. Biochem. Behav., 53, 277-283 (1996)]. Std-ddY male mice weighing 25-30 g (six mice per one group) were used in the experiment. Scopolamine dissolved in physiological saline (concentration: 0.04 mg/ml) was subcutaneously administered to mice in a volume of 0.1 ml per 10 g of body weight, i.e., 0.4 mg/kg. For the test compound group, the test compound suspended in 0.5% tragacanth solution was orally administered in a volume of 0.1 ml per 10 g of body weight, 30 minutes before scopolamine administration, and for the amnesia control group and the vehicle control group, a 0.5% tragacanth solution was administered in the same manner as above. However, for the vehicle control group, physiological saline was administered instead of scopolamine. Thirty minutes after the administration of scopolamine, the first trial was carried out for 5 minutes, and 1 hour after the first trial, the second trial was carried out for 5 minutes. In the first trial, the two same-shaped objects [red frustum-formed funnel adaptors made of silicon (bottom diameter: 6.1 cm, ceiling diameter: 4.5 cm, height: 3.5 cm)] are put on the two adjacent corners of the test box made of brown acrylic (length: 22.5 cm, width: 24.5 cm, height: 11 cm), and the time that the mouse explored each object was measured. In the second trial, the object (familiar: F) which the exploration time was longer in the first trial was retained, while another object in the first trial was replaced by the novel object [novel: N, red diver ring (outside diameter: 7.5 cm, inside diameter: 2.5 cm, thickness: 2.0 cm)] at the same position, and then the time for exploring each object was measured. The rate of object memory impairment was obtained from the formula: (N−F)/(N+F) as a discrimination index, and the comparison between the vehicle control group and the amnesia control group, and between the amnesia control group and the test compound group was carried out on the basis of said discrimination index. In statistical analysis, the comparison between the vehicle control group and the amnesia control group was carried out by the Student's t test and it was checked whether a significant amnesia was induced. The efficacy of the test compounds was evaluated on the basis of comparison between the amnesia control group and the test compound group by the parametric Dunnett's multiple comparison test. […]

The test system of data set [2] is scopolamine-induced spatial memory disorder. The data set is described as follows: Ameliorating effect on spatial memory disorder induced by scopolamine (Y-maze, alternation behavior). It counts as in vivo. The following applies: Std-ddY male mice, oral, 1 hour before scopolamine 0.6 mg/kg s.c., 5% significance level. The procedure:
Experiment 1: Ameliorating Effect on Spatial Memory Disorder Induced by Scopolamine. The spatial memory test using Y-maze apparatus is a test to utilize the behavioral property of animals to enter into a new arm, avoiding the arm that they entered into just before (alternation behavior). This method is often used in order to study spatial working memory. This experiment was carried out according to the method of Itoh, J., et al. [Eur. J. Pharmacol., 236, 341-345 (1993)]. Std-ddY male mice weighing 25-30 g (8 mice per one group) were used in the experiment. A solution of scopolamine in physiological saline (concentration: 0.06 mg/ml) was subcutaneously administered to mice in a volume of 0.1 ml/10 g of body weight, i.e., 0.6 mg/kg. Mice in the test compound group were orally treated with the test compound suspended in 0.5% tragacanth solution in a volume of 0.1 ml/10 g of body weight 1 hour before scopolamine administration, while animals in the amnesia control group and the vehicle control group received a 0.5% tragacanth solution in the same manner as above. However, the vehicle control group was injected with physiological saline instead of scopolamine. Thirty minutes after administration of scopolamine, the mice were placed at the end of the arm A of the Y-maze apparatus which was composed of three black acrylic trapezoid arms (bottom width: 3 cm, height of side wall: 12 cm, width of opened ceiling: 10 cm, length: 40 cm), wherein said three arms were connected at the one end of each arm to form Y-shape and another ends were closed, and the three arms were differentiated by the names as A, B and C respectively, and allowed to search freely the maze for 8 minutes. When the mouse was checked to enter into an arm at the length of not less than 10 cm from the entrance of the arm, the name of the arm (A, B or C) was recorded. It could be defined as a correct choice when the mouse selected the different three arms sequentially, and the number of alternation behavior i.e., the number of correct choices was counted. In the case that the total number of arm entries was less than 10 [the maximum number of alternation behavior (the number obtained by subtracting 2 from the total number of arm entries) is less than 8], the resulting data were not used and the retest was carried out instead, because the ability of learning could not occasionally reflect the alternation behavior. For the final data gotten, the ratio of the number of the alternation behavior to that of the entries (obtained by subtracting 2 from the total number of arm entries) was estimated as the rate of alternation behavior. In statistical analysis, the rate of alternation behavior in the amnesia control group was compared with that in the vehicle control group by the nonparametric Wilcoxon rank sum test and it was checked if a significant amnesia was induced in the amnesia control group. Next, the efficacy of the test compounds was evaluated in comparison between the amnesia control group and the test compound group by the nonparametric Dunnett multiple comparison test. The statistical calculation was carried out with SAS system Version 6.12 (SAS Institute Japan Ltd.).

Data set [3] deals with MK-801-induced object location memory impairment. The data set is described as follows: Ameliorating effect on the impairment of object location memory induced by MK-801 (object location memory test). The format is in vivo, mice. The following applies: oral; for effective dose relative to the dose of FGIN-1-27: MK-801-induced object location memory impairment, mice; for MED (minimum effective dose), significant ameliorating effect on MK-801-induced object location memory impairment: Std-ddY male mice, 30 minutes before MK-801 0.05 mg/kg s.c., 5% significance level. The source says:
Experiment 3: Ameliorating Effect on the Impairment of Object Location Memory Induced by MK-801.
The object location memory test is a test method using the property which animals like to search a novelty caused by the change of an object location. This method is often used in order to study the ability of object location memory. This method is closely related with hypofunction of glutamatergic system and cause the location memory impairment selectively without the impairment of object memory which is induced by hypofunction of cholinergic system.
This experiment was carried out according to the partially modified method of Sophie L. Dix, et al. [Behav. Brain Res., 99, 191-200 (1999)].
Std-ddY male mice weighing 25-30 g (six mice per one group) were used in the experiment. A solution of MK-801 in physiological saline (concentration: 0.005 mg/ml) was subcutaneously administered in a volume of 0.1 ml per 10 g of body weight, i.e., 0.05 mg/kg. For the test compound group, the test compound suspended in 0.5% tragacanth solution was orally administered in a volume of 0.1 ml per 10 g of body weight, 30 minutes before MK-801 administration, and for the amnesia control group and the vehicle control group, a 0.5% tragacanth solution was administered in the same manner as above. However, for the vehicle control group, physiological saline was administered instead of MK-801. Thirty minutes after the administration of MK-801, the first trial was carried out for 5 minutes, and 1 hour after the first trial, the second trial was carried out for 5 minutes. In the first trial, the two same-shaped objects [red frustum-formed funnel adaptors made of silicon (bottom diameter: 6.1 cm, ceiling diameter: 4.5 cm, height: 3.5 cm)] were respectively put in the center and one of the corners of the test box made of brown acrylic (length: 22.5 cm, width 24.5 cm, height: 11 cm), and the time which the mouse explored each object was measured. In the second trial, the object (displaced object: DO) which was located in the center in the first trial was displaced in the opposite corner to another object (non displaced object: NDO), and then the time which the mouse explored each object was measured. The difference in the exploration time of DO and NDO respectively between the first trial and the second trial was calculated, and the comparison between the vehicle control group and the amnesia control group, and between the amnesia control group and the test compound group was carried out.
In statistical analysis, the comparison between the vehicle control group and the amnesia control group was carried out by the Student's t test and it was confirmed whether a significant object location memory impairment was induced. The efficacy of the test compounds was evaluated by comparing the amnesia control group with the test compound group using the parametric Dunnett's multiple comparison test. The statistical calculation was carried out with SAS system Version 6.12 (SAS Institute Japan Ltd.).
Besides, in the vehicle control group, the exploration time for NDO in the second trial decreased and the exploration time for DO was obviously longer than that for NDO. […] On the other hand, in the amnesia control group with MK-801, both exploration time for NDO and DO decreased remarkably.

The test system of another data set is Std-ddY male mice. The data set is described as follows: Acute toxicity (Experiment 4). The format is in vivo. To be noted: oral 2000 mg/kg, observed for 7 days. The procedure: Experiment 4: Acute Toxicity
The experiment on the test compound C was carried out using Std-ddY male mice weighing 25-30 g (10 mice per each group).

Data set [4] relates to animal models of learning impairment. To be noted: active avoidance test, radial-arm maze test, water maze test; cited from earlier work.

`CCN(C(=O)Cn1c(=O)n(C)c2nc(-c3ccccc3)ncc21)c1ccccc1` [Test Compound C, N-ethyl-8,9-dihydro-9-methyl-8-oxo-2-phenyl-N-phenyl-7H-purin-7-acetamide]: the “MED (minimum effective dose), significant difference in the discrimination index, scopolamine-induced object memory impairment” value in data set [1] worked out at 0.01 mg/kg. For the same compound, the “MED (minimum effective dose), significant ameliorating effect on scopolamine-induced spatial memory disorder in the rate of alternation behavior” value in data set [2] was 0.01 mg/kg. In addition, in data set [3], the “effective dose relative to the dose of FGIN-1-27” value is “less than 1/100” and the “MED (minimum effective dose), significant ameliorating effect on MK-801-induced object location memory impairment” value amounted to 0.1 mg/kg. Moreover, the lethality entry with Std-ddY male mice is “no mouse treated with the test compound C died”.
For `CCN(Cc1ccccc1)C(=O)Cn1c(=O)n(CC)c2cnc(-c3ccccc3)nc21` [Test Compound D, N-benzyl-7-ethyl-N-ethyl-7,8-dihydro-8-oxo-2-phenyl-9H-purin-9-acetamide], in data set [2], the “MED (minimum effective dose), significant ameliorating effect on scopolamine-induced spatial memory disorder in the rate of alternation behavior” value was found to be 3 mg/kg.
On the same count and under the same terms, with `COc1ccc(N(C)C(=O)Cn2c(=O)n(C)c3cnc(-c4ccccc4)nc32)cc1` [Test Compound A, N-(4-methoxyphenyl)-7,8-dihydro-7-methyl-N-methyl-8-oxo-2-phenyl-9H-purin-9-acetamide] the figure was 3 mg/kg.
For `CCN(Cc1ccccc1)C(=O)Cn1c(=O)n(C)c2nc(-c3ccccc3)ncc21` [Test Compound B, N-benzyl-N-ethyl-8,9-dihydro-9-methyl-8-oxo-2-phenyl-7H-purin-7-acetamide], the “MED (minimum effective dose), significant ameliorating effect on scopolamine-induced spatial memory disorder in the rate of alternation behavior” value in data set [2] was 3 mg/kg.
With `CCCCCCN(CCCCCC)C(=O)Cc1c(-c2ccc(F)cc2)[nH]c2ccccc12` [FGIN-1-27, N,N-di-n-hexyl-2-(4-fluorophenyl)indol-3-acetamide, reference compound], in data set [1], the “MED (minimum effective dose), significant difference in the discrimination index, scopolamine-induced object memory impairment” value is reported as greater than 30 mg/kg. Moreover, the “ameliorating effect on scopolamine-induced object memory impairment at a stated dose” value in data set [1] (dose of 30 mg/kg) is given as “no significant ameliorating effect”. Further, the “MED (minimum effective dose), significant ameliorating effect on scopolamine-induced spatial memory disorder in the rate of alternation behavior” value in data set [2] was found to be 10 mg/kg. Besides, the “ameliorating effects in animal models of learning impairment” value (“ameliorating effects in animal models” below) in data set [4] is “weak ameliorating effects”. Besides, the “MED (minimum effective dose), significant ameliorating effect on MK-801-induced object location memory impairment” value in data set [3] was determined as 10 mg/kg.
Regarding `CC(=O)[C@H]1CC[C@H]2[C@@H]3CC[C@H]4C[C@H](O)CC[C@]4(C)[C@H]3CC[C@]12C` [allopregnanolone], in data set [4], the “ameliorating effects in animal models” value is “weak ameliorating effects”.
As to `CCN(Cc1ccccc1)C(=O)Cn1c(=O)n(C)c2cnc(-c3ccccc3)nc21` [Test Compound E, N-benzyl-N-ethyl-7,8-dihydro-7-methyl-8-oxo-2-phenyl-9H-purin-9-acetamide], the “MED (minimum effective dose), significant difference in the discrimination index, scopolamine-induced object memory impairment” value in data set [1] stood at 0.1 mg/kg. Further, the “MED (minimum effective dose), significant ameliorating effect on scopolamine-induced spatial memory disorder in the rate of alternation behavior” value in data set [2] is 1 mg/kg. In addition, in data set [3], the “effective dose relative to the dose of FGIN-1-27” value is on record as “less than 1/100” and the “MED (minimum effective dose), significant ameliorating effect on MK-801-induced object location memory impairment” value is listed as 0.01 mg/kg.
For pregnenolone sulfate, in data set [4], the “ameliorating effects in animal models” value is on record as “weak ameliorating effects”.
